In US20090311723A1, “FLUORESCENCE-BASED ASSAY FOR MONOACYLGLYCEROL LIPASE COMPATIBLE WITH INHIBITOR SCREENING” (WYETH, priority 2007, published 2009):
Values belong to the molecule of their own block, whether it stands above or below them.

Columns and labels:
[1] = molecular target: T1, recombinant human MGL protein (Homo sapiens, UniProt Q99685); experiment: Fluorescence assay of MGL inhibition with 7-HCA as substrate; type: biochemical; conditions: for IC50: 3 ng MGL, 10 μM 7-HCA, pH 8, 25° C., 60 minutes
T1 construct: a mixture of forward and reverse primers spanning the entire coding region; made in house; host or cells: E. coli BL21
T1 sequence (Q99685 1-303): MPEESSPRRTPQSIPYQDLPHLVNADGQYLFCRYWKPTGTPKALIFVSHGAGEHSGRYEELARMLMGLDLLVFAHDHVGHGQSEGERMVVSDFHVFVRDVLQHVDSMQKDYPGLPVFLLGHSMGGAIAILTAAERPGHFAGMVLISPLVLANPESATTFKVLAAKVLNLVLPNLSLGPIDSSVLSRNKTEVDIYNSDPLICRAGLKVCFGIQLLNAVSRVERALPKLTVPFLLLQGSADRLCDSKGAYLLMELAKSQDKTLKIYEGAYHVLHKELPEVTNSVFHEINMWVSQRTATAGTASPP
Method: For measuring MGL inhibition by compounds, 3 ng protein per assay were incubated with indicated concentrations of the compound in the presence of 10 mM 7-HCA for 60 minutes. The reactions were stopped and processed as described above. Results are presented as the mean±S.E. of triplicate measurements from at least two independent experiments. The IC50 values were calculated by […]™ Prism 3.02 program using a sigmoidal dose-response equation.
Inhibition of MGL activity by URB602 was studied by treating 3 ng of MGL protein with increasing concentrations of URB602 with 7-HCA as substrate at pH 8, and 25° C., for 60 minutes in a total volume of 50 μl.
According to FIG. 7, the assay was carried out by incubating 3 ng of MGL protein with 10 μM 7-HCA and indicated concentrations of compounds in 50 mM HEPES, pH 8, 1 mM EDTA and 10% DMSO, at 25° C. for 60 minutes. The percent inhibition of MGL activity was plotted against compound concentration, and the IC50 was calculated by fitting the curve to a non-linear regression equation using […]™ Prism 3.02. Each data point represents mean±SD (n=3) from at least 2 individual experiments.

MGL [2] = molecular target: T2, MGL (Rattus norvegicus, UniProt Q8R431); conditions: Makara 2005; later demonstrated to be false positive (impurity); read-out: IC50 of MGL previously reported; cited from earlier work
T2 sequence (Q8R431 1-303): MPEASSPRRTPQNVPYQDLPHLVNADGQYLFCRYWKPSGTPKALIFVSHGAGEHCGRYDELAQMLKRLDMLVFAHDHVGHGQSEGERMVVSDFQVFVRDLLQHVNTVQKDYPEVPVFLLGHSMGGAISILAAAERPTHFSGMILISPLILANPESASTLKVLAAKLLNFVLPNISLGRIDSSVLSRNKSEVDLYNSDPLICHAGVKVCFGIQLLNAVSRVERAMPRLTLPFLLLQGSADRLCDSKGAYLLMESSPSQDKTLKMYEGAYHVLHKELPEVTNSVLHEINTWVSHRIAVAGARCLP

[3] = Stability of 7-HCA in assay buffer over time; type: physicochemical; conditions: 25° C.
Method: The stability of 7-HCA in assay buffer was monitored over time and found to be stable for at least 5 hours at 25° C.

MGL [4] = molecular target: T2, MGL; parameters: from tissue; host or cells: rat brain, periaqueductal grey, in vivo (reported from Hohmann 2005); conditions: micro-injection into periaqueductal grey, blocked by CB1 antagonist SR141716; cited from earlier work
[5] = substrate: C=CCCCCC(=O)Oc1ccc2ccc(=O)oc2c1; experiment: Rate of hydrolysis of fluorogenic substrates by MGL (Michaelis-Menten kinetics, 7-HC fluorescence); type: biochemical, human; conditions: other: 3 ng/well MGL, 10% DMSO, pH 8.0, room temperature, read after 10 minutes, ND = not detectable activity
Method: (§1) The assay was performed in a 384-well black plate (NUNC) in a total volume of 50 μl. A typical assay consisted of 3 ng of MGL protein, 10 mM 7-HCA substrate (prepared in DMSO) in assay buffer consisting of 50 mM HEPES, pH 8, 1 mM EDTA, and […] of inhibitor solution or DMSO (10% final concentration). The components were mixed and incubated on a shaker for 10-60 min and the plate was read in a fluorescence plate reader (SPECTRAMAX™-Gemini; Ex: 355 nm; Em: 460 nm). The reaction was carried out at 25° C., and the fluorescence was monitored in the kinetic mode. The fluorescence units were converted to amount of product based on the standard curve generated with 7-HC. The data were analyzed using GRAPHPAD™ Prism Version 3.02. The observed rate constants (apparent KM) were calculated using GRAPHPAD™ Prism 3.02 based on a Michaelis-Menten (one site binding hyperbola) equation Y=BmaxX/[Kd+X].
(§2) Table 3, shown below, depicts rates of hydrolysis for MGL with representative fluorogenic substrates. Rates were measured at reactions containing 3 ng/well MGL protein, a series of concentrations of above compounds in 10% DMSO, pH 8.0, and room temperature. The 7-HC fluorescence (λex=355 nm, λem=460 nm) was read after 10-minutes. The data were analyzed and the Vmax and Km calculated using the Michaelis-Menten equation. *ND means “not detectable activity.”
(§3) The kinetic constants, KM (apparent) and Vmax were calculated by determining the MGL activity with increasing substrate concentrations. 3 ng MGL protein were incubated with increasing 7-HCA concentrations, at pH 8, 25° C., for 10 minutes in a 384-well black plate, in a total volume of 50 μl. Specific activity of MGL was plotted against the substrate concentration and the data was fit to a non-linear regression equation (FIG. 6). […] The Lineweaver-Burk plot is shown as an insert within FIG. 6.
(§4) According to FIG. 6, a 50 μl MGL reaction, containing 3 ng/well MGL protein, the indicated concentrations of 7-HCA and 10% DMSO, was performed at room temperature. The 7-HC fluorescence (λex=355 nm, λem=460 nm) was read after 10-minutes. The data were analyzed and the Vmax and KM calculated using the Michaelis-Menten equation. A Lineweaver-Burk plot of 7-HCA hydrolysis by substrate is also shown.

[6] = substrate: CCCCC/C=C\C/C=C\C/C=C\C/C=C\CCCC(=O)Oc1ccc2ccc(=O)oc2c1; experiment: as above; type: biochemical, human; conditions: other: 3 ng/well MGL, 10% DMSO, pH 8.0, room temperature, read after 10 minutes, ND = not detectable activity
Method: as §1, §2, §3, §4

- IC50 [1]: 155 nM
Molecule: CCCCC/C=C\C/C=C\C/C=C\C/C=C\CCCCN1C(=O)C=CC1=O [N-Arachidonyl Maleimide (NAM), N-Arachidonyl Maleimide]

- stability in assay buffer [3]: at least 5 hours
Molecule: CCCCC/C=C\C/C=C\C/C=C\C/C=C\CCCC(=O)Oc1ccc2ccc(=O)oc2c1 [7-HCA, 7-Hydroxycoumarinyl-arachidonate]

Continued, molecule first:

Molecule: Cc1ccc(Nc2nc3ccc(C)cc3c(=O)o2)cc1 [URB754]
- inhibition of MGL activity (negative control) ([1]; concentrations up to 100 μM): failing to inhibit MGL activity
- IC50 (MGL [2]): 50 nM

Molecule: O=C(Nc1cccc(-c2ccccc2)c1)OC1CCCCC1 [URB602]
- IC50 [1]: 3600 nM
- IC50 ([1]; listed as URB-602): 3100 nM
- effect on stress-induced antinociception (MGL [4]): enhanced stress-induced antinociception

B1: recombinant human MGL protein (Homo sapiens) (protein)
chain: T1 sequence (Q99685 1-303)
notes: a mixture of forward and reverse primers spanning the entire coding region; made in house; host or cells: E. coli BL21
- Km [5]: 9.3 µM
- Vmax [5]: 1.3 µmol/min/mg
- Km [6]: 9.8 µM
- Vmax [6]: 1.7 µmol/min/mg
